Data published in US9452217B2, “Methods for potentiating immune response for the treatment of infectious diseases and cancer” (Nitor Therapeutics, priority 2013, dated 2016).

Assays:
Format in all cases: cell-based
[1] = biological target: T1, human TLR7 (Homo sapiens, UniProt Q9NYK1); assay: TLR ligand screening: NF-κB activation (SEAP reporter) in HEK293 cells expressing TLR7; details: one concentration: NTR001 10 uM, Inosine 100 uM; FIG. 2
T1 construct: expressed in transfected cells; host or cells: HEK293
T1 sequence (Q9NYK1 27-1049): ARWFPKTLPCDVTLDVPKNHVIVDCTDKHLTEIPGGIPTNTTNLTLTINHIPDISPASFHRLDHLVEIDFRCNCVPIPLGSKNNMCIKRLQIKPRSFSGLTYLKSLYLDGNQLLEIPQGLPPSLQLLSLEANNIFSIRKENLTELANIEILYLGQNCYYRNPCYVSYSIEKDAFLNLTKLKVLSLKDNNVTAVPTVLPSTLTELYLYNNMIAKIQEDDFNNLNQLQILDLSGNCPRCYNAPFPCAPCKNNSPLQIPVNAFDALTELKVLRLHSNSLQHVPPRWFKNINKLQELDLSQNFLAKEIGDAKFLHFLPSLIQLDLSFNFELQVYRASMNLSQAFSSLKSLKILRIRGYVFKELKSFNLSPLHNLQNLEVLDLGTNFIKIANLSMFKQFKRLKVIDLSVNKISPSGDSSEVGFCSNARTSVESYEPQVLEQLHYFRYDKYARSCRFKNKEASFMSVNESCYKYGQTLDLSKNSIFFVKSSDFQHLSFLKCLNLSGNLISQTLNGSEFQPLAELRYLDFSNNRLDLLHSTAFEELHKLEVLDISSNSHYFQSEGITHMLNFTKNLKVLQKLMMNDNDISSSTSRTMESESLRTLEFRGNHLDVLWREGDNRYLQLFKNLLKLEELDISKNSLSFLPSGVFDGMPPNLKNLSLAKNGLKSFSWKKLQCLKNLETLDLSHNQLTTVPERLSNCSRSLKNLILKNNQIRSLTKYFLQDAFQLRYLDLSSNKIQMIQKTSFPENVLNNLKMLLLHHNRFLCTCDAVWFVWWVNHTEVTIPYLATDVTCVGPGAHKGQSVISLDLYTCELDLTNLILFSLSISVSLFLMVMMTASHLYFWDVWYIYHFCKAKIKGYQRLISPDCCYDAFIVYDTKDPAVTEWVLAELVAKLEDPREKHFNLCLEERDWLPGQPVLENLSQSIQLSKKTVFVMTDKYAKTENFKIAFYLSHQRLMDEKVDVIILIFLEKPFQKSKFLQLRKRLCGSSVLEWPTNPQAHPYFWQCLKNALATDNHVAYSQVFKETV
Experimental: (§1) Method: TLR stimulation is tested by assessing NF-κB activation in HEK293 cells expressing a given TLR. The Secreted Embryonic Alkaline Phosphatase (SEAP) reporter is under the control of a promoter inducible by the transcription factor NF-κB. This reporter gene allows the monitoring of signaling through the TLR, based on the activation of NF-κB. The compounds are evaluated at one concentration and compared to control ligands. This step is performed in triplicate.

[2] = biological target: T2, human TLR8 (Homo sapiens, UniProt Q9NR97); assay: TLR ligand screening: NF-κB activation (SEAP reporter) in HEK293 cells expressing TLR8; details: one concentration: NTR001 10 uM, Inosine 100 uM; FIG. 2
T2 construct: expressed in transfected cells; host or cells: HEK293
T2 sequence (Q9NR97 27-1041): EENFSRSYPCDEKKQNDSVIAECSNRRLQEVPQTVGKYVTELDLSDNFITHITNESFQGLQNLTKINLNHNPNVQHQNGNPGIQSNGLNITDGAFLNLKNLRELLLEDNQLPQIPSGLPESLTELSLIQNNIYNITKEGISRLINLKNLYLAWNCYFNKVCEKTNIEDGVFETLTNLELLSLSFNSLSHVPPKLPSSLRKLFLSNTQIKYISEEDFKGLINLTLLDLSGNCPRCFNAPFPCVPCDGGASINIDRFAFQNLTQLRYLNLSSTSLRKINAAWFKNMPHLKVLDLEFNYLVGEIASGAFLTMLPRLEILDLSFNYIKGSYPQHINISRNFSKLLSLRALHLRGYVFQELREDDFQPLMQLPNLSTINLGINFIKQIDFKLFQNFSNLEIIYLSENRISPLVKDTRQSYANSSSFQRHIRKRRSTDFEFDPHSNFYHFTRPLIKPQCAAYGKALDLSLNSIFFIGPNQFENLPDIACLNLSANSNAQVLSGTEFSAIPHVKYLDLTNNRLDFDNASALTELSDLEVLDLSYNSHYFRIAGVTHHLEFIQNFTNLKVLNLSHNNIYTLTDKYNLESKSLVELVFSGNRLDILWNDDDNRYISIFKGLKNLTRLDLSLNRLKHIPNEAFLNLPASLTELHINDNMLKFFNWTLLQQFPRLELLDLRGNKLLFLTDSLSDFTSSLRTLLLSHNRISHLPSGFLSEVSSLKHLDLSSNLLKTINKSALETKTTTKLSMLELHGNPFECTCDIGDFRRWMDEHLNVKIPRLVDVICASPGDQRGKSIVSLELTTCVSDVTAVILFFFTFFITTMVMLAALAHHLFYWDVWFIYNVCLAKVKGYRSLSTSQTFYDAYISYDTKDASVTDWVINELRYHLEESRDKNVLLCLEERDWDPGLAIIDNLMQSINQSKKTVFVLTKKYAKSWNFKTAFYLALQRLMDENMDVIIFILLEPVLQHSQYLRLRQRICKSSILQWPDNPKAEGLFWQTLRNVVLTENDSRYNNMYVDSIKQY
Experimental: as §1

[3] = biological target: T3, human TLR4 (Homo sapiens, UniProt O00206+Q9Y6Y9); assay: TLR ligand screening: NF-κB activation (SEAP reporter) in HEK293 cells expressing TLR4; details: one concentration: Guanosine 100 uM, NTR001 10 uM, Inosine 100 uM; FIG. 2
T3 construct: expressed in transfected cells; host or cells: HEK293
T3 sequence (O00206 24-839): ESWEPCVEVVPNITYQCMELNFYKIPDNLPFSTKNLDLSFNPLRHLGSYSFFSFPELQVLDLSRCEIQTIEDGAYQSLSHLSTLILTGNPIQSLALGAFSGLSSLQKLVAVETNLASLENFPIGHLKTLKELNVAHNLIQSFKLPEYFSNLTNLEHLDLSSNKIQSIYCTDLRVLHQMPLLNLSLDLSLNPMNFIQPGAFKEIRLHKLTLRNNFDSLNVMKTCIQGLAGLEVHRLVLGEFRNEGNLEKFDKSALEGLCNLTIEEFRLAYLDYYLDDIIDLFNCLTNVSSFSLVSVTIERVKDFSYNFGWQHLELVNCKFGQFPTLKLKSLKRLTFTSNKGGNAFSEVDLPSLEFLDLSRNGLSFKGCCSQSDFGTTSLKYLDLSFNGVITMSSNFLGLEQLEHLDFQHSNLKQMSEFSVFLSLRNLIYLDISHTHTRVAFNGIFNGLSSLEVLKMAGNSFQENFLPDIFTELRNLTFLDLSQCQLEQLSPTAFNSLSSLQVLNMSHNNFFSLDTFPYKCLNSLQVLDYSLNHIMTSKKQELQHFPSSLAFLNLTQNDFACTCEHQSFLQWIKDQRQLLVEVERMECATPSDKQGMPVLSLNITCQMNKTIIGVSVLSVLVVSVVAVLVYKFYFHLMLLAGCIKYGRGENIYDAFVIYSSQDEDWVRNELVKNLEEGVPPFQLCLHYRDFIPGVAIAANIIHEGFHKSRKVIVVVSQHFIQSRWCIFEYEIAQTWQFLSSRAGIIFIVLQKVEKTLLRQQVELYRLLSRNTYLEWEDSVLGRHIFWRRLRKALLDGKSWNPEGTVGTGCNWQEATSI
T3 sequence (Q9Y6Y9 17-160 limits assumed): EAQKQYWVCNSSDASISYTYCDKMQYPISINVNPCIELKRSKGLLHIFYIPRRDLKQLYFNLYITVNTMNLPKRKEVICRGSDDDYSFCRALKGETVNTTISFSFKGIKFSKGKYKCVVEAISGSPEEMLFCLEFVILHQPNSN
Experimental: as §1

[4] = biological target: T4, human TLR2 (Homo sapiens, UniProt O60603); assay: TLR ligand screening: NF-κB activation (SEAP reporter) in HEK293 cells expressing TLR2; details: one concentration: Guanosine 100 uM, NTR001 10 uM, Inosine 100 uM; FIG. 2
T4 construct: expressed in transfected cells; host or cells: HEK293
T4 sequence (O60603 21-784): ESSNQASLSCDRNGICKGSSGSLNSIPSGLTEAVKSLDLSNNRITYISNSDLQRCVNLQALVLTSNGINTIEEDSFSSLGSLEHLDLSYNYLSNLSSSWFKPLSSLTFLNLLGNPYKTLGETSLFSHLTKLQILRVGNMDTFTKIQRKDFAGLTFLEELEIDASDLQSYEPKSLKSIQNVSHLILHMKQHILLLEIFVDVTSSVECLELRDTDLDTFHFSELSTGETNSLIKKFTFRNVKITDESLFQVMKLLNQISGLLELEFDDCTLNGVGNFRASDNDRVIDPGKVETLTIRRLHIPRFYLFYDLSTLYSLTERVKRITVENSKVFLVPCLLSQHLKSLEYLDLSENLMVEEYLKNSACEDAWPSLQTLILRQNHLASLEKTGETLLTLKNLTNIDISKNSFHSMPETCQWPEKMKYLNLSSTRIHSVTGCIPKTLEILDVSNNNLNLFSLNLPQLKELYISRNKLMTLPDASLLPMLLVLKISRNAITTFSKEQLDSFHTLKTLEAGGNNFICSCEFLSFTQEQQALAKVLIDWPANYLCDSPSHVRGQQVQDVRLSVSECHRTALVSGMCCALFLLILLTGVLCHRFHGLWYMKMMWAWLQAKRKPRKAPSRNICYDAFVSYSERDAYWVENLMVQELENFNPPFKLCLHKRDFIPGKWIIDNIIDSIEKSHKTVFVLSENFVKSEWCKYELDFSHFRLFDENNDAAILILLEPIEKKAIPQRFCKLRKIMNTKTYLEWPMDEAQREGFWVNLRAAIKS
Experimental: as §1

Row | SMILES | stimulatory effect on human TLR7 [1] | stimulatory effect on human TLR8 [2] | stimulatory effect on human TLR4 [3] | stimulatory effect on human TLR2 [4]
1 | OC[C@H]1O[C@@H](n2cnc3c(O)ncnc32)[C@H](O)[C@@H]1O [Inosine] | do not exhibit a stimulatory effect | do not exhibit a stimulatory effect | do not exhibit a stimulatory effect | do not exhibit a stimulatory effect
2 | O=c1[nH]cnc2c([C@@H]3N[C@H](CO)[C@@H](O)[C@H]3O)c[nH]c12 [NTR001, 7-[(2S,3S,4R,5R)-3,4-dihydroxy-5-(hydroxymethyl)-2-pyrrolidinyl]-1,5-dihydro-4H-pyrrolo [3,2-d]pyrimidin-4-one] | do not exhibit a stimulatory effect | do not exhibit a stimulatory effect | do not exhibit a stimulatory effect | do not exhibit a stimulatory effect
